Experiments:
soybean plants = test: Heat stress resistance of soybean plants; assay type: in vivo, Glycine max; conditions: 45° C. for 24 h
Source text: (§1) (a, b) Relative area of lesions on S. lycopersicum leaves infected with B. cinerea and treated with an irrelevant peptide or cPEPjar1. (c, d) Heat stress resistance of soybean plants treated with an irrelevant peptide or cPEPsp101. (e, f) Growth (plant height) of soybean plants treated with an irrelevant peptide or a mixture of cPEPs (targeting MRB1, SHY2 and SGR1). (g, h) Leaf area of B. vulgaris plants treated with an irrelevant peptide or a mixture of cPEPs (targeting EIN2, BR11, BAK1 and WUS). (i, j) Leaf surface of A. hypochondriacus plants treated with an irrelevant peptide or a mixture of cPEPs (targeting EIN2, BR11, BAK1 and WUS).
N. benthamiana plants were treated by spraying the leaves 24 h before harvesting. For Luc assays, 100 μL of MS/2 liquid medium containing the peptides was added to each well. 5 μL of luciferin was added and luciferase activity was read 30 min later using a spectrophotometer. All other assays were performed by spraying or watering the plants. To quantify the protein level induced by cPEPs in Arabidopsis, rosettes were sprayed daily with 100 μM of peptide or its control for 5 days. Leaves were harvested 6 h after the last treatment for western blot analysis. […] Chlorophyll content was measured using the SPAD chlorophylometer (Konica Minolta). Leaf area was measured using ImageJ software. […]

Botrytis cinerea = test: S. lycopersicum leaves infected with B. cinerea; assay type: in vivo; conditions: tomato
Source text: as §1
Wild-type or mutant A. thaliana leaves were sprayed daily with 100 μM of peptide or 100 μM of the corresponding scramble version for 3 days. Six hours after the last treatment, five mature leaves per plant were inoculated with a 5 μL droplet of 2.5×10^5 spores/mL of Botrytis cinerea strain B05.10 diluted in 100 μM of peptide or its corresponding scramble version. After inoculation, plants were maintained at 100% relative humidity. Then, a 2 μL droplet of 100 μM of peptide or 100 μM of the corresponding scramble version was deposited daily on B. cinerea-infected leaves for 3 days (until symptoms appeared). Leaves were removed from the plants to determine lesion areas using the ImageJ programme. […]

luciferase mRNA = test: Relative expression of the luciferase transgene by RT-qPCR; assay type: in vivo, Arabidopsis thaliana; conditions: A. thaliana expressing LUC treated with synthetic peptide
Source text: (§2) Analysis of luciferase expression in A. thaliana constitutively expressing the LUC transgene. (a) Agarose gel after PCR amplification of RNA obtained by immunoprecipitation using anti-HA magnetic beads, followed by RT-PCR, on plants treated with the indicated peptide (SC-HA: Scrambled cPEPluc-HA; Luc-HA: cPEPluc-HA). (b) Relative expression of the luciferase transgene in plants treated with the indicated peptide, quantified by RT-qPCR. (c-e) Relative quantification of LUC in plants treated with the indicated peptide. (f, g) Ratio between induction and quantification of LUC in plants treated with cPEPluc compared to plants treated with Scrambled cPEPluc, using different peptide concentrations (f) or taken at different time points (g). (h) Transcriptomic analysis of plants treated with cPEPluc-HA compared to plants treated with Scrambled cPEPluc-HA. (i) Proteomic analysis of plants treated with cPEPluc-HA compared to plants treated with Scrambled cPEPluc-HA. Protein expression was analysed by Western blots and quantified using ImageJ.
Quantification of mRNAs was performed by qRT-PCR using appropriate primer pairs selected from the sequences: SEQ ID NOs: 367 to 374. Expression levels for the controls were set at 100. The primers used for the A. euteiches assays are described in Camborde et al (New Phytol. 233:2232-2248. 2022).

luciferase [1] = test: Luciferase activity in A. thaliana LUC plants with or without cycloheximide; assay type: in vivo, Arabidopsis thaliana; conditions: cycloheximide 200 μg·mL^−1, 24 h
Method: (§3) (a) Analysis of luciferase activity in A. thaliana plants constitutively expressing the LUC transgene and treated with Scrambled cPEPluc or cPEPluc, with or without cycloheximide. (b) Analysis of luciferase activity after in vitro transcription/translation of luciferase expressed with cPEPluc or Scrambled cPEPluc.
Arabidopsis thaliana plants comprising the LUC construct were treated by infiltrating the leaves with a solution of peptide with or without cycloheximide (200 μg·mL^−1) in MS/2 medium, 24 h before harvesting for the LUC assay.

luciferase [2] = test: In vitro transcription/translation of luciferase (wheat germ system); assay type: biochemical; conditions: 60 min
Source text: as §3
The TnT® SP6 high-throughput wheat germ protein expression system (Promega) was used according to the manufacturer's instructions. The LUC sequence was amplified using the GoTaq Polymerase® (Promega), cPEPs or their corresponding Scramble versions were added just prior to the start of the reaction. The reaction was stopped after 60 min, after which LUC activity was measured using a plate spectrophotometer (Perkin-Elmer Victor Nivo).

luciferase [3] = test: Luciferase activity in A. thaliana constitutively expressing the LUC transgene; assay type: in vivo, Arabidopsis thaliana
Source text: as §2
Medicago truncatula Gaertn cv. Jemalong genotype A17 were grown on Long Aston medium as described in Delaux P M et al (New Phytol. 2013 July; 199(1):59-65). Arabidopsis thaliana Col-0 plants were grown in soil until 4 weeks of age in a growth chamber (22/20° C., 16 h/8 h L/D, RH 80%, ~75 μmol·m^−2 s^−1). Barbarea vulgaris seeds were stratified for 24 h at 4° C. before being grown in pots in a growth chamber. Seeds of Amaranthus hypochondriacus, Glycine max and Solanum lycopersicum were sown in pots and grown in a growth chamber. […]
N. benthamiana plants were treated by spraying the leaves 24 h before harvesting. […] 5 μL of luciferin was added and luciferase activity was read 30 min later using a spectrophotometer. […] To quantify the protein level induced by cPEPs in Arabidopsis, rosettes were sprayed daily with 100 μM of peptide or its control for 5 days. […] Chlorophyll content was measured using the SPAD chlorophylometer (Konica Minolta). Leaf area was measured using ImageJ software. […]

[4] = 96-well assay, cPEPluc compared to Scrambled cPEPluc

For “cPEPhsp101 (EEYRKYVEKD; cPEPhsp101) [SEQ ID NO: 408, cPEP targeting the homolog of HSP101 in soybean]”, the “tolerance to heat stress” value (soybean plants) was “increased”.

“cPEPjar1: cPEP targeting the tomato JAR1 protein (AFRTFEQVWE; cPEpjar1)” was tested, and the “plant's resistance to B. cinerea” value (Botrytis cinerea) was “improved”.

With “cPEPluc: complementary peptide of 10 amino acids corresponding to a 10 amino acid fragment of the luciferase protein (KRYGLNTNHR; cPEPluc)” the “luciferase mRNA abundance (qPCR)” value (luciferase mRNA) was “no effect”, the “effect of cPEPluc on luciferase activity in the presence of CHX” value (luciferase [1]) was “inhibited” and the “LUC activity in vitro” value (luciferase [2]) was “increased”. For the same substance, the “optimum concentration of cPEP for luciferase induction” value (luciferase [3]; [4]) was 50 µM, the “treatment time showing the maximum effect of cPEP” value (luciferase [3]; [4]) was 24 h and the luciferase activity (luciferase [3]; A. thaliana LUC seedlings, exogenous peptide treatment, compared with water or non-luciferase-specific peptides) was “increased”.

Reference: US20260193668A1, “NOVEL PEPTIDES AND USE THEREOF FOR MODULATING PROTEIN ACCUMULATION” (UNIVERSITE TOULOUSE III - PAUL SABATIER, priority 2022, published 2026)
